PubChem BioAssay (NCI)
Several values for one entry are separate records, joined by “and”; a condition that tells them apart may be missing. Equal entries are not always repeated.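 48-hour exposure; five concentrations; linearly interpolated endpoints. Here, GI50 denotes the concentration required for 50% inhibition of growth. TGI marks complete inhibition of growth.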

What was measured:
Assay in all cases: DTP human tumour cell line panel, 48 h
K-562 leukemia = tested on: K-562 leukemia
CAKI-1 renal = tested on: CAKI-1 renal
SK-MEL-2 melanoma = tested on: SK-MEL-2 melanoma
SW-620 colon = tested on: SW-620 colon
SF-539 CNS = tested on: SF-539 CNS
OVCAR-4 ovarian = tested on: OVCAR-4 ovarian
CCRF-CEM leukemia = tested on: CCRF-CEM leukemia
NCI/ADR-RES ovarian = tested on: NCI/ADR-RES ovarian
ACHN renal = tested on: ACHN renal
M14 melanoma = tested on: M14 melanoma

| SMILES | GI50 (K-562 leukemia) | TGI (K-562 leukemia) [µM] | GI50 (CAKI-1 renal) [µM] | TGI (CAKI-1 renal) [µM] | GI50 (SK-MEL-2 melanoma) [µM] | TGI (SK-MEL-2 melanoma) [µM] | GI50 (SW-620 colon) | TGI (SW-620 colon) [µM] | GI50 (SF-539 CNS) | TGI (SF-539 CNS) [µM] | GI50 (OVCAR-4 ovarian) [µM] | TGI (OVCAR-4 ovarian) [µM] | GI50 (CCRF-CEM leukemia) | TGI (CCRF-CEM leukemia) [µM] | GI50 (NCI/ADR-RES ovarian) [µM] | TGI (NCI/ADR-RES ovarian) [µM] | GI50 (ACHN renal) [µM] | TGI (ACHN renal) [µM] | GI50 (M14 melanoma) | TGI (M14 melanoma) [µM] |
| --- | --- | --- | --- | --- | --- | --- | --- | --- | --- | --- | --- | --- | --- | --- | --- | --- | --- | --- | --- | --- |
| OC(CNC1CCCC1)Cn1c2ccccc2c2ccccc21 (stereo not given) | > 100 µM | > 100 | > 100 | > 100 | 25.1 | 68.6 | > 100 µM | > 100 | 24.4 µM | 82.9 | > 100 | > 100 | > 100 µM | > 100 | 40.6 | > 100 | 39.6 | > 100 | > 100 µM | > 100 |
| CCOC(=O)C#Cc1c(CC(=O)OCC)nnn1[C@H]1O[C@@H](CO)[C@@H]2OC(C)(C)O[C@@H]21 | 3 µM | 11.1 | 1.71 | 3.15 | 18.4 | 34.8 | 1.88 µM | 3.78 |  |  | 2.11 | 5.43 | 2.04 µM | 4.97 | 11.5 | 36.5 | 1.97 | 4.11 | 3.58 µM | 12.8 |
| Oc1ccc(N=Nc2ccc(N=Nc3ccccc3)cc2)cc1 | 0.615 µM | 12.7 | 1.45 | 4.12 | 2.29 | 8.06 | 1.51 µM | 13.9 | 0.712 µM | 3.03 | 8.43 | 32.9 | 0.379 µM | 14 | 3.67 | 39.5 | 1.49 | 5.59 | 3.01 µM | 10.1 |
| CC1SC(=O)SC1C (stereo not given) |  | > 100 |  |  |  |  |  | > 100 |  | > 100 |  | > 100 |  | > 100 |  | > 100 |  | > 100 |  | > 100 |
| COC(=O)[C@@H](C)C[C@H](Cc1ccccc1)NC(=O)c1csc([C@@H](C[C@H](C(C)C)N(C)C(=O)C2(NC(=O)[C@H]3CCCCN3C)CC2)OC(C)=O)n1 | 0.00244 µM and 0.00333 µM | > 33.3 |  |  | 0.00411 |  | 0.00317 µM and 0.00333 µM | > 33.3 | 0.00868 µM and < 0.00333 µM |  | 0.00865 |  | 0.00531 µM and 0.00333 µM | > 33.3 | > 33.3 | > 33.3 |  | > 33.3 | 0.00504 µM and 0.00333 µM | 0.468 |
| C=C1CC[C@@H]2[C@](C)(COC(C)=O)[C@H](OC(C)=O)CC[C@@]2(C)[C@@H]1C/C=C1/C(=O)OC[C@H]1OC(C)=O | 2.63 µM | 32.1 | 6.67 | 19.6 | 10.7 | 26.3 | 2.29 µM | 5.85 | 1.7 µM | 3.22 | 3.57 | 15.4 | 1.12 µM | 5.32 | 4.22 | 19.8 | 1.71 | 3.22 | 2.22 µM | 6.48 |
